# In patent US6200962A, “Thionophosphate derivatives, process for their preparation and pharmaceutical compositions containing them” (priority 1994, dated 2001):
# Tests used:
# [1] = Scavenging of sodium hypochlorite followed by 31P NMR; settings: 5 mM in water, 6 mM NaOCl, immediately after exposure
# Description: (§1) ROS reaction with AMTP were recorded by ^31 P NMR spectra. ^31 P spectra were referenced to 1% H3 PO4 in D2 O and used as an external standard.
# Compound B (5 mM in water) was introduced into 6 mM sodium hypochlorite.
# BSA = test: BSA's cystine oxidation by NaOCl (DTNB); settings: NaOCl 1 mM
# Description: BSA (0.5 mg/ml) in Imi HEPES buffer pH=7.2(50 mM) was incubated with sodium hypochlorite (1 mM) for 15 min. The protein was dialyzed for 2 h against 2×500 vol of HEPES buffer to remove free sodium hypochlorite. 301 DTNB 0.015 M in water was then added to the protein solution and color was measured at 420 nm. AMTPs were added to the protein sample to protect it against sodium hypochlorite [Hazell and Stocker, ibid.].
# BSA's tryptophan oxidation and BSA's cystine oxidation were the models for protein damage by NaOCl (FIG. 11 and FIG. 12 respectively). BSA fluorescence intensity decreased following oxidative stress of NaOCI (1 mM). […] Out of the three AMTP compounds the most lipophilic (A) was best in preventing the damage and provided 94% protection on the protein.
# Human skin fibroblasts = test: Chromium release from fibroblasts, killing by streptolysin S and glucose oxidase; type: cell-based
# Description: Human skin fibroblasts were kindly supplied by the Department for Human Genetics at Hadassa Hospital in Jerusalem. The cells were grown in D-MEM medium supplemented with glutamine, penicillin, and streptomycin and 10% fetal calf serum [Ginsburg, I. et al. (1992) Inflammation 16:519-538]. Radiolabeled cell monolayers were prepared by the addition of 10 μCi/ml of [^51 Cr]NaCrO4 (New England Nuclear) to […] of trypsinized cells grown in 75-ml tissue culture bottles. The cells were then dispensed into 24-well tissue culture plates (Nunc, Roskilde, Denmark) and grown to confluency in a CO2 incubator.
# Hydrogen peroxide flux was generated by the addition of glucose oxidase (0.5 units/ml) to the tissue culture media. Streptolysin S (SLS) of Croup A Streptococci (17 hemolytic units/ml) was employed as a membrane damaging agent.
# Culture monolayers were treated for 1 h with the agents listed above. The cultures were monitored periodically for changes in cell morphology. To assess cytotoxicity, the supernatant fluids were removed and centrifuged at 2000 rpm for 2 min. The solubilized radioactivity was then determined in a Contron gamma counter. The total radioactivity associated with untreated controls was solubilized by the addition of 1 ml of 1% Triton X-100. (AMTPs influence on SLS hemolytic activity and on glucose oxidase activity was also tested. No influences were observed).
# Fibroblasts in culture were exposed to a synergistic killing mechanism (streptolysin S in combination with an oxidant glucose oxidase) in a D-MEM culture medium that contained 1 mg/ml of glucose (about 0.5-1 mM of H2 O2 was produced after 1 hour of incubation at 37° C.). This system caused about 60% chromium released within an hour. […] The positive controls were DMTU and catalase.
# [2] = Reaction with hydrogen peroxide followed by 31P NMR
# Description: as §1
# Two products of oxidation were observed by ^31 P NMR (FIG. 4). One product at 9.106 ppm and the other at -3.556 ppm. The second product indicated another fragmentation in the molecule.
# Different reaction rates were recorded by NMR kinetics between hydrogen peroxide and compound B either in a more hydrophilic environment and in a more hydrophobic one (different mixtures of 1,4-dioxane and water) with dielectric constants of 72.63 and 9.58 respectively.
# [3] = oil(mineral)/water and octanol/water partitioning; type: physicochemical
# Text: The basic chemical structure of the compounds of the invention includes the group --P--N=S, which resembles the thiourea --N--C=S core, in which the central carbon atom has been replaced by a phosphorus atom, to give --N--P=S, which is the characteristic functional group the novel compounds of the invention. This functional group is based on a primary amido thionophosphate (AMTP) chemical bond. The specific compounds shown in FIG. 1, which are only representative of the numerous possible compounds, differ in their oil(mineral) /water and octanol/water partitioning: […]
# [4] = Toxicity study, i.p. injection; type: in vivo, Sabra mice; settings: mouse, in vivo, ip, single, Sabra mice
# Description: (§2) The toxicity of compound B was tested by injecting 75 mg/kg, 150 mg/kg, 300 mg/kg, 500 mg/kg, 700 mg/kg and 1000 mg/kg i.p. to groups of eight Sabra mice. In addition, a repetitive i.p. injection of 75 mg/kg/day over a period of two weeks was conducted on eight mice. The mice were monitored for mortality and for chances in their weight compared to a saline injected control group.
# (§3) The toxicity of compound B was tested by injecting 75 mg/kg, 150 mg/kg, 300 mg/kg, 500 mg/kg, 700 mg/kg and 1000 mg/kg i.p. to groups of eight Sabra mice.
# Sabra mice = test: Toxicity study, i.p. injection; type: in vivo
# Description: as §2, §3
# [5] = Hydroxyl radical chemiluminescence method (H2O2, NTA-Fe2+, HRP); settings: increasing concentrations
# Description: Chemiluminescence (CL) was measured in mixtures of H2 O2, NTA-Fe^2+ and HRP (Horseradish peroxidase) systems in a LUMAC/3M BIOCONTER M2010 connected to a linear recorder as described [Ginsburg, I. et al. (1993) Inflammation 17:227-243]. The scavenging of hydroxyl radicals was done by various concentrations of AMTP (compound C dissolved in reaction buffer).
# where A is the absorbance in the presence of a scavenger S (AMTPs) at a concentration [S] and A0 is the absorbance in the absence of a scavenger KDR =3.1*10^9 (reaction constant between deoxyribose and OH. radical) [Ebert, M., et al. (1965) Pulse Radiolysis, Academic Press, London] and [DR]=18 mM. […] Considering the fast reaction between H2 O2 and Fe^2+ --NTA and the slow reaction rate between AMTP and hydrogen peroxide as monitored in the ^31 P experiments (FIG. 5), the light decay may be exclusively attributed to hydroxyl radical scavenging.
compound,measurement,setting,value
"CCOP(=S)(NCCO)OCC [Compound B, 2-hydroxyamido diethyithionophosphate]",oxidation by sodium hypochlorite,[1],complete oxidation of the sulfur group
same,protection of BSA's cystines,BSA,strong protection
same,"prevention of cell damage, comparative",Human skin fibroblasts,much more efficient than compound C
same,toxic effects on the cell,"Human skin fibroblasts; concentrations of up to 20 mM, compound alone",did not show any toxic effects
same,protection against cell killing,"Human skin fibroblasts; concentrations up to 10 mM, 60 min",50-60%
same,decomposition by H2O2,"[2]; 5 mM compound, 100 mM H2O2",decomposed by H2 O2
same,reaction rate with hydrogen peroxide vs dielectric constant,"[2]; 1,4-dioxane/water mixtures, dielectric constants 72.63 and 9.58",much faster in high dielectric constants
same,logP,"[3]; octanol/water, read-out: P (octanol/water) (converted)",0.508
same,P (oil/water),[3]; oil(mineral)/water,0.25
same,LD50 at 720 h,[4],~700 mg/kg
same,mortality,"Sabra mice; i.p., doses up to 500 mg/kg",No mortality was observed
same,changes in average weight,"Sabra mice; i.p., up to 500 mg/kg, monitoring of 30 days, vs saline control",nor were there any significant changes
same,mortality or weight differentiation,"Sabra mice; repetitive i.p. 75 mg/kg/day, two weeks",did not lead to any mortality or weight differentiation
same,decay of light (hydroxyl radical scavenging),[5],Dose dependent decay of light
